From patent US20230399312A1, “SUBSTITUTED PYRIMIDINES AND METHODS OF USE” (THERAVANCE BIOPHARMA R&D IP, LLC, priority 2020, published 2023)

What was measured:
[1] = target: T1, recombinant human ALK5 (TGF-βR1) protein (Homo sapiens, UniProt P36897); experiment: Biochemical ALK5 (TGF-βR1) assay to measure pKi (LANCE Ultra ULight kinase assay); details: apparent pKi, converted from pIC50 by Cheng-Prusoff
T1 construct: purchased Life Technologies PR9075A
T1 sequence (P36897 34-503): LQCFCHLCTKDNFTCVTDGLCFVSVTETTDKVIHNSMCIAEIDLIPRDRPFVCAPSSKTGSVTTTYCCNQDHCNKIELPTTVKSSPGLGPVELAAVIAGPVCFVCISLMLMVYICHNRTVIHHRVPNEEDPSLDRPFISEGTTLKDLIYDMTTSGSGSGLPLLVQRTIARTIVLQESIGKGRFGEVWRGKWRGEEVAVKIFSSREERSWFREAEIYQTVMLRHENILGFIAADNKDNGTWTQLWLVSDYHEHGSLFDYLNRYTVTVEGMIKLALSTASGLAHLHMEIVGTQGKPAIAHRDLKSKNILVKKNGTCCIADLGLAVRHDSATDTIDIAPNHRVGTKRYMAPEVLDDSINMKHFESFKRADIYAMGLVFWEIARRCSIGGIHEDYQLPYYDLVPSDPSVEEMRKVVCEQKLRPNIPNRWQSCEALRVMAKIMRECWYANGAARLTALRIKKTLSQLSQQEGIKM
How it was run: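 Europium TR-FRET kinase assay: the enzyme is exposed to compound for 60 min at room temperature, and reaction with ATP runs 60 min at 37 °C. Percent inhibition relative to DMSO and SD-208 controls gives pIC50, which is converted to pKi.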

[2] = tested on: TGF-β-stimulated SMAD3 phosphorylation in BEAS-2B cells; experiment: Cellular ALK5 potency assay, inhibition of TGF-β stimulated pSMAD3 formation in BEAS-2B cells; format: cell-based; details: Homo sapiens, pSMAD3, TGF-β 10 ng/mL, read-out: BEAS2B pIC50 (converted)
How it was run: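 BEAS-2B cells, HBSS/25 mM HEPES/1% BSA buffer; cpd 1 h, 37 °C; TGF-β 10 ng/mL final, 30 min; lysis, AlphaLISA pSMAD3 read next day. pIC50 vs stimulated no-compound baseline.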

Compound | Ki [1] [nM] | IC50 [2] [nM]
Cc1cccc(-c2nccc(Nc3ccnc(Nc4ccc(N5C[C@@H](C)N[C@@H](C)C5)cc4)n3)n2)n1 [Compound 143, N4-[2-(6-methyl-2-pyridyl)pyrimidin-4-yl]-N2-[4-[rac-(3S,5R)-3,5-dimethylpiperazin-1-yl]phenyl]pyrimidine-2,4-diamine] | 0.0398 to 0.316 | 25.1 to 158
Cc1cccc(-c2nccc(Nc3ccnc(Nc4ncc(N5C[C@@H](C)N[C@@H](C)C5)s4)n3)n2)n1 [Compound 604, N2-[5-[(3R,5S)-3,5-dimethylpiperazin-1-yl]thiazol-2-yl]-N4-[2-(6-methyl-2-pyridyl)pyrimidin-4-yl]pyrimidine-2,4-diamine] | 3.98 to 31.6 | 200 to 1260
Cc1cccc(-c2nccc(Nc3ccnc(Nc4ccc(N5CCN(CC6CCC(=O)O6)CC5)cc4)n3)n2)n1 (stereo not shown) [Compound 235, 5-[[4-[4-[[4-[[2-(6-methyl-2-pyridyl)pyrimidin-4-yl]amino]pyrimidin-2-yl]amino]phenyl]piperazin-1-yl]methyl]tetrahydrofuran-2-one] | 0.0398 to 0.316 | ≤ 20
Cc1cccc(-c2nc(Nc3ccnc(Nc4ccc(C(=O)NCC5CNC5)cc4)n3)c3cccn3n2)n1 [Compound 1035, N-(azetidin-3-ylmethyl)-4-[[4-[[2-(6-methyl-2-pyridyl)pyrrolo[2,1-f][1,2,4]triazin-4-yl]amino]pyrimidin-2-yl]amino]benzamide] | 0.0398 to 0.316 | 25.1 to 158
Cc1cccc(-c2nccc(Nc3ccnc(Nc4ccc(Cl)c(CO)c4)n3)n2)n1 [Compound 295, [2-chloro-5-[[4-[[2-(6-methyl-2-pyridyl)pyrimidin-4-yl]amino]pyrimidin-2-yl]amino]phenyl]methanol] | 0.0398 to 0.316 | 25.1 to 158
Cc1cccc(-c2nccc(Nc3ccnc(Nc4ccc(N5CCNCC5)c(CC(=O)O)c4)n3)n2)n1 [Compound 95, 2-[5-[[4-[[2-(6-methyl-2-pyridyl)pyrimidin-4-yl]amino]pyrimidin-2-yl]amino]-2-piperazin-1-yl-phenyl]acetic acid] | 0.0398 to 0.316 | 200 to 1260
Cc1cccc(-c2nccc(Nc3ccnc(Nc4ccc5c(c4)CNCC5)n3)n2)n1 [Compound 175, N4-(2-(6-methylpyridin-2-yl)pyrimidin-4-yl)-N2-(1,2,3,4-tetrahydroisoquinolin-7-yl)pyrimidine-2,4-diamine] | ≤ 0.0316 | 25.1 to 158
Cc1cccc(-c2nccc(Nc3ccnc(Nc4ccc(Cl)c(CN5C[C@@H](C)N[C@@H](C)C5)c4)n3)n2)n1 [Compound 381, N2-[4-chloro-3-[[rac-(3R,5S)-3,5-dimethylpiperazin-1-yl]methyl]phenyl]-N4-[2-(6-methyl-2-pyridyl)pyrimidin-4-yl]pyrimidine-2,4-diamine] | 0.0398 to 0.316 | 25.1 to 158
Cc1cccc(-c2nccc(Nc3ccnc(Nc4ccc(CN5CCC[C@H](C(=O)O)C5)cc4)n3)n2)n1 [Compound 224, (3S)-1-[[4-[[4-[[2-(6-methyl-2-pyridyl)pyrimidin-4-yl]amino]pyrimidin-2-yl]amino]phenyl]methyl] piperidine-3-carboxylic acid] | 0.0398 to 0.316 | 200 to 1260
Cc1cccc(-c2nccc(Nc3ccnc(Nc4ccc(N5CCN(CC6CNC6)CC5)cc4)n3)n2)n1 [Compound 380, N2-[4-[4-(azetidin-3-ylmethyl)piperazin-1-yl]phenyl]-N4-[2-(6-methyl-2-pyridyl)pyrimidin-4-yl]pyrimidine-2,4-diamine] | 0.0398 to 0.316 | 25.1 to 158
Cc1cccc(-c2nccc(Nc3ccnc(Nc4ccc(CN5CCOCC5)c(F)c4)n3)n2)n1 [Compound 242, N2-[3-fluoro-4-(morpholinomethyl)phenyl]-N4-[2-(6-methyl-2-pyridyl)pyrimidin-4-yl]pyrimidine-2,4-diamine] | 0.0398 to 0.316 | 25.1 to 158
COC(=O)CC1CN(Cc2ccc(Nc3nccc(Nc4ccnc(-c5cccc(C)n5)n4)n3)cc2)CCN1 (stereo not shown) [Compound 451, methyl 2-[4-[[4-[[4-[[2-(6-methyl-2-pyridyl)pyrimidin-4-yl]amino]pyrimidin-2-yl]amino]phenyl]methyl]piperazin-2-yl]acetate] | 0.0398 to 0.316 | 25.1 to 158
Cc1cccc(-c2nccc(Nc3ccnc(Nc4nc(C(=O)OC[C@H]5CCCN5)cs4)n3)n2)n1 [Compound 593, [(2R)-pyrrolidin-2-yl]methyl 2-[[4-[[2-(6-methyl-2-pyridyl)pyrimidin-4-yl]amino]pyrimidin-2-yl]amino]thiazole-4-carboxylate] | 0.398 to 3.16 | 25.1 to 158
Cc1cccc(-c2nccc(Nc3ccnc(Nc4ccc5c(c4)CC(N)C5)n3)n2)n1 (stereo not shown) [Compound 524, N2-(2-aminoindan-5-yl)-N4-[2-(6-methyl-2-pyridyl)pyrimidin-4-yl]pyrimidine-2,4-diamine] | 0.0398 to 0.316 | 25.1 to 158
Cc1cccc(-c2nccc(Nc3ccnc(Nc4ccc(CN5[C@H]6CCNC[C@@H]5CC6)cc4)n3)n2)n1 (racemic) [Compound 360, N4-[2-(6-methyl-2-pyridyl)pyrimidin-4-yl]-N2-[4-[[rac-(1S,6R)-3,9-diazabicyclo[4.2.1]nonan-9-yl]methyl]phenyl]pyrimidine-2,4-diamine] | 0.0398 to 0.316 | 25.1 to 158
Cc1cccc(-c2nccc(Nc3ccnc(Nc4cnn(CCN)c4)n3)n2)n1 [Compound 53, N2-[1-(2-aminoethyl)pyrazol-4-yl]-N4-[2-(6-methyl-2-pyridyl)pyrimidin-4-yl]pyrimidine-2,4-diamine] | 0.0398 to 0.316 | 200 to 1260

Now from value to compound, other results behind:

Ki [1] [nM] | Compound | IC50 [2] [nM]
0.0398 to 0.316 | Cc1cccc(-c2nc(Nc3ccnc(Nc4ccc(NC(=O)C5CCNC5)cc4)n3)c3cccn3n2)n1 (stereo not shown) [Compound 1027, N-[4-[[4-[[2-(6-methyl-2-pyridyl)pyrrolo[2,1-f][1,2,4]triazin-4-yl]amino]pyrimidin-2-yl]amino]phenyl]pyrrolidine-3-carboxamide] | 25.1 to 158
0.0398 to 0.316 | COC(=O)c1ccc(Nc2nccc(Nc3nc(-c4cccc(C)n4)nn4cccc34)n2)cn1 [Compound 1024, methyl 5-[[4-[[2-(6-methyl-2-pyridyl)pyrrolo[2,1-f][1,2,4]triazin-4-yl]amino]pyrimidin-2-yl]amino]pyridine-2-carboxylate] | 25.1 to 158
0.0398 to 0.316 | Cc1cccc(-c2nc(Nc3ccnc(Nc4ccc(NC(=O)C5CCCNC5)cc4)n3)c3cccn3n2)n1 (stereo not shown) [Compound 1032, N-[4-[[4-[[2-(6-methyl-2-pyridyl)pyrrolo[2,1-f][1,2,4]triazin-4-yl]amino]pyrimidin-2-yl]amino]phenyl]piperidine-3-carboxamide] | 25.1 to 158
0.0398 to 0.316 | Cc1cccc(-c2nccc(Nc3ccnc(Nc4ccc(CN5CCCC(C(=O)O[C@@H]6CCNC6)C5)cc4)n3)n2)n1 (mixture of isomers) [Compound 105, [rac-(3R)-pyrrolidin-3-yl] 1-[[4-[[4-[[2-(6-methyl-2-pyridyl)pyrimidin-4-yl]amino]pyrimidin-2-yl]amino]phenyl]methyl] piperidine-3-carboxylate] | 25.1 to 158
0.0398 to 0.316 | Cc1cccc(-c2nccc(Nc3ccnc(Nc4cnn(C5CCNC5)c4)n3)n2)n1 (stereo not shown) [Compound 245, N4-[2-(6-methyl-2-pyridyl)pyrimidin-4-yl]-N2-(1-pyrrolidin-3-ylpyrazol-4-yl)pyrimidine-2,4-diamine] | 200 to 1260
0.0398 to 0.316 | Cc1cccc(-c2nccc(Nc3ccnc(Nc4ccc(N5CCCC(C(=O)OC6CCNC6)C5)cc4)n3)n2)n1 (stereo not shown) [Compound 11, pyrrolidin-3-yl 1-[4-[[4-[[2-(6-methyl-2-pyridyl)pyrimidin-4-yl]amino]pyrimidin-2-yl]amino]phenyl]piperidine-3-carboxylate] | 200 to 1260
0.0398 to 0.316 | Cc1cccc(-c2nccc(Nc3ccnc(Nc4ccc(C(=O)OC[C@@H]5CCNC5)nc4)n3)n2)n1 [Compound 584, [(3R)-pyrrolidin-3-yl]methyl 5-[[4-[[2-(6-methyl-2-pyridyl)pyrimidin-4-yl]amino]pyrimidin-2-yl]amino]pyridine-2-carboxylate] | 25.1 to 158
0.398 to 3.16 | Cc1cccc(-c2nccc(Nc3ccnc(Nc4cccc(C(=O)O[C@H]5CCNC5)c4)n3)n2)n1 [Compound 257, [(3S)-pyrrolidin-3-yl] 3-[[4-[[2-(6-methyl-2-pyridyl)pyrimidin-4-yl]amino]pyrimidin-2-yl]amino]benzoate] | 25.1 to 158
0.0398 to 0.316 | Cc1cccc(-c2nccc(Nc3ccnc(Nc4ccc(S(=O)(=O)N5CCOCC5)cc4)n3)n2)n1 [Compound 407, N4-[2-(6-methyl-2-pyridyl)pyrimidin-4-yl]-N2-(4-morpholinosulfonylphenyl) pyrimidine-2,4-diamine] | 25.1 to 158
3.98 to 31.6 | Fc1cc(F)c(-c2nccc(Nc3ccnc(Nc4ccc(N5CCOCC5)cc4)n3)n2)cc1Cl [Compound 19, N4-[2-(5-chloro-2,4-difluoro-phenyl)pyrimidin-4-yl]-N2-(4-morpholinophenyl)pyrimidine-2,4-diamine] | 25.1 to 158
